Results on 28 compounds are retold here after US11370796B2, “Substituted pyrazoles as LRRK2 inhibitors” (OSCOTEC INC., priority 2017, dated 2022).

This experiment concerns the target LRRK2 (leucine-rich repeat kinase 2) (Homo sapiens (Human), UniProt Q5S007). As to the kind of experiment: Inhibitory effect on LRRK2 in vitro (LANCE kinase assay). It counts as biochemical. As to the method:
The inhibitory effect of Compounds 1 to 62 on LRRK2 (leucine-rich repeat kinase 2) in vitro was measured. In the analysis of the results, IC50 values were calculated for a quantitative comparison of the in vitro activity.
After the compound was dissolved in 100% DMSO at 10 mM, it was serially diluted to the range of 1 μM to 10 μM using biochemical LRRK2 assay buffer (50 mM HEPES (4-(2-hydroxyethyl)-1-piperazineethanesulfonic acid) pH 7.5, 10 mM MgCl2, 1 mM EGTA (1,2-bis(o-aminophenoxy)ethane-N,N,N′,N′-tetraacetic acid), 2 mM DTT (dithiothreitol), and 0.01% TWEEN-20 (Aldrich)). Purified LRRK2 (CARNA BIOSCIENCES) was added to a black U-bottom 96-well microtiter plate containing 6 μl of the serially diluted compound, followed by incubation at room temperature for 30 minutes. For the kinase reaction, ATP and a substrate solution specific urea-polypeptide (ULIGHT™-poly TK, PerkinElimer) were added. The reaction was carried out at room temperature for 1 hour, and it was detected with an detection solution (brand name: LANCE™) containing EDTA. A LANCE detection solution containing europium-labeled antibody ([…] PT66) was added, followed by incubation at room temperature for 50 minutes, to terminate the kinase experiment. The phosphorylated substrate was detected by 665 nm emission measurement. IC50 values were calculated by a non-linear regression analysis using a Prism program (PRISM™ software) with reference to the absence of a kinase inhibitor.
As a comparative assay, a compound LRR2-IN-1, that known to be a reference compound for LRRK2 inhibitor, have also tested an inhibitory activity.
A general note: In TR-FRET formats the signal depends on donor and acceptor labels being close together.

[1] abbreviates: Table 1, class symbols, read-out: LRRK2 inhibition rate (IC50).
Where [2] appears, read: purified LRRK2, Table 6, read-out: IC50.

Where two headings read alike, the source gives them in different places. Where only a bound is given, the exact number is not on record here.

Chain of LRRK2 (leucine-rich repeat kinase 2) (Q5S007 whole entry): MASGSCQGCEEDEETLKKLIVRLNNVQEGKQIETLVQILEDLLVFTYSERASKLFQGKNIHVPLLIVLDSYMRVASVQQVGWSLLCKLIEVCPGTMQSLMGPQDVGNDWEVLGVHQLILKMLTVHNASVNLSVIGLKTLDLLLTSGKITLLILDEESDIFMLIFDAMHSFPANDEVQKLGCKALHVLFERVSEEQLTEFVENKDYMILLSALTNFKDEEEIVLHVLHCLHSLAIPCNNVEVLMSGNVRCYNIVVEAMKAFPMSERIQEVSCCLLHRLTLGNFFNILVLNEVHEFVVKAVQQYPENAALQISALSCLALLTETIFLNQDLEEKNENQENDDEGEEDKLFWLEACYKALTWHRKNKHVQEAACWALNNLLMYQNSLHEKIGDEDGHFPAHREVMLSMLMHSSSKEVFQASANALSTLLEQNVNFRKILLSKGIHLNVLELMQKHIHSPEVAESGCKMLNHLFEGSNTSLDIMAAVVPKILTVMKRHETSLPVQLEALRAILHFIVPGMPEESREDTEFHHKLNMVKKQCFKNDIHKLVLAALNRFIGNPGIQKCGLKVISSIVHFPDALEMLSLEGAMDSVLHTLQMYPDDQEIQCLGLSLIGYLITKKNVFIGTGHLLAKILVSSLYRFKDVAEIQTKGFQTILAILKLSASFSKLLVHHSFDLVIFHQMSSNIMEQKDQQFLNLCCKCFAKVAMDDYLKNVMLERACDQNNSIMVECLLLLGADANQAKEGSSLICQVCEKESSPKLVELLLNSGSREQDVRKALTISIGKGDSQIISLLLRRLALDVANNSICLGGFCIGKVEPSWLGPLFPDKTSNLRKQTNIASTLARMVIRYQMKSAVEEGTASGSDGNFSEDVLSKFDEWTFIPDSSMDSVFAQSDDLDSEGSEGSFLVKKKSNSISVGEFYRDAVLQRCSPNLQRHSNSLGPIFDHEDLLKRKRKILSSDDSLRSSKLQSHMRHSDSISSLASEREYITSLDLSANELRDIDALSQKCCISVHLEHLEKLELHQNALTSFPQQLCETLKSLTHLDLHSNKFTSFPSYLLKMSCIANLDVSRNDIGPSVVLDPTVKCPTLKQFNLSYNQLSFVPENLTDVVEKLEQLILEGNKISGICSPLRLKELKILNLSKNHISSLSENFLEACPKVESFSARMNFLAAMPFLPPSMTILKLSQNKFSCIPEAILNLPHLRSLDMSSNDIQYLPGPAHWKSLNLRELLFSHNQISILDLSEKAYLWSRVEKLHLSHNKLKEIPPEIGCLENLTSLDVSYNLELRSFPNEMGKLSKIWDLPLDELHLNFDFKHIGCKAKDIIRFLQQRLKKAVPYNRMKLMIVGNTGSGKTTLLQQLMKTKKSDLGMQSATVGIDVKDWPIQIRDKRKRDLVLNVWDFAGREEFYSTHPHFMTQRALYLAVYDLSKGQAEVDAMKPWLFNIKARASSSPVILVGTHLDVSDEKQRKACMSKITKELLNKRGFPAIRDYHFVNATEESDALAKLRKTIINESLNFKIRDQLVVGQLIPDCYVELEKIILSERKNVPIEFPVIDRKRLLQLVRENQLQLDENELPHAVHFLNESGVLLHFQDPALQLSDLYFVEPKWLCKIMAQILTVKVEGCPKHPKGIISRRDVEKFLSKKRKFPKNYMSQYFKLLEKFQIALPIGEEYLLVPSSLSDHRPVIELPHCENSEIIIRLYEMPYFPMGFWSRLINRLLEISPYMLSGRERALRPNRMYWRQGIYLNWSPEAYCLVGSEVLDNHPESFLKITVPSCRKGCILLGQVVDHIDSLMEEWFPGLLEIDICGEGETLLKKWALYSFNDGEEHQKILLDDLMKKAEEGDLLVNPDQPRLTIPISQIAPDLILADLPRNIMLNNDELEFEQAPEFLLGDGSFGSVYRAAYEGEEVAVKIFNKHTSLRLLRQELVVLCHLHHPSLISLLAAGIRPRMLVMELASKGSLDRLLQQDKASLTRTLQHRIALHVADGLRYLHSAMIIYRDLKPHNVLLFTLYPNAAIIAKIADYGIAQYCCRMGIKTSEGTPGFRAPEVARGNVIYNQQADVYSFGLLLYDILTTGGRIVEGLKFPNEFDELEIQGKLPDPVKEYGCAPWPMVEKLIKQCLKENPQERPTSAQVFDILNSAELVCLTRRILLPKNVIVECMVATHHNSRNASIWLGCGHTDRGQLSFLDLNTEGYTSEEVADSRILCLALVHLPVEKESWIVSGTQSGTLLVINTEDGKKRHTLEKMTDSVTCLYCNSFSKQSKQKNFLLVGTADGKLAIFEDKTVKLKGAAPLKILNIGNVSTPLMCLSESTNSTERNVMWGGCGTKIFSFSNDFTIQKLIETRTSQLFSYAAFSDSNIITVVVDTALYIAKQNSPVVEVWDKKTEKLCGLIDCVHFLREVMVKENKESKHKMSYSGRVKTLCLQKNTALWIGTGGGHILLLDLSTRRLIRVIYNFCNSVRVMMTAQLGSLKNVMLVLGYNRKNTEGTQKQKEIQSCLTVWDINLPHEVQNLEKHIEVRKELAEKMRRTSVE

With `CCn1cc(Cl)c2cnc(Nc3cn(C4CCOCC4)nc3Cl)nc21` [Compound 18, 5-chloro-N-(3-chloro-1-(tetrahydro-2H-pyran-4-yl)-1H-pyrazol-4-yl)-7-ethyl-7H-pyrrolo[2,3-d]pyrimidin-2-amine], the 50% inhibitory concentration (IC50) (usually the concentration needed to halve the response being measured) under setting [1] is 10 to 100 nM.

For `CCn1cc(Cl)c2cnc(Nc3cn(C4CCN(C(=O)C(C)C)CC4)nc3Cl)nc21` [Compound 26, 1-(4-(3-chloro-4-(5-chloro-7-ethyl-7H-pyrrolo[2,3-d]pyrimidin-2-ylamino)-1H-pyrazol-1-yl)piperidin-1-yl)-2-methylpropane-1-one], the IC50 under setting [1] was 10 to 100 nM.

Consider `Cn1cc(Cl)c2cnc(Nc3cnn(C4CCN(C5COC5)CC4)c3Cl)nc21` [Compound 27, 5-chloro-N-(5-chloro-1-(1-(oxetan-3-yl)piperidin-4-yl)-1H-pyrazol-4-yl)-7-methyl-7H-pyrrolo[2,3-d]pyrimidin-2-amine], for which the half-inhibitory concentration (IC50) under setting [1] fell in the range of 10 to 100 nM.

Take `CCn1nc(Cl)c2cnc(Nc3cn(C4CN(C(=O)C5CC5)C4)nc3Cl)nc21` [Compound 60, (3-(3-chloro-4-(3-chloro-1-ethyl-1H-pyrazolo[3,4-d]pyrimidin-6-ylamino)-1H-pyrazol-1-yl)azetidin-1-yl)(cyclopropyl)methanone]: the IC50 under setting [1] fell in the range of 10 to 100 nM.

Take `CCn1nc(Cl)c2cnc(Nc3cn(C4CCN(C(C)=O)CC4)nc3Cl)nc21` [Compound 58, 1-(4-(3-chloro-4-(3-chloro-1-ethyl-1H-pyrazolo[3,4-d]pyrimidin-6-ylamino)-1H-pyrazol-1-yl)piperidin-1-yl)ethanone]: the IC50 by setting is: under setting [1], less than 10 nM; under setting [2], 5.92 nM.

In the case of `Clc1nn(C2CC2)cc1Nc1ncc2c(Cl)cn(C3CC3)c2n1` [Compound 15, 5-chloro-N-(3-chloro-1-cyclopropyl-1H-pyrazol-4-yl)-7-cyclopropyl-7H-pyrrolo[2,3-d]pyrimidin-2-amine], the IC50 under setting [1] is 10 to 100 nM.

With `CCn1nc(Cl)c2cnc(Nc3cnn(C4CN(C5COC5)C4)c3Cl)nc21` [Compound 61, 3-chloro-N-(5-chloro-1-(1-(oxetan-3-yl)azetidin-3-yl)-1H-pyrazol-4-yl)-1-ethyl-1H-pyrazolo[3,4-d]pyrimidin-6-amine], the IC50 under setting [1] was in the range of 10 to 100 nM.

In the case of `CCn1nc(Cl)c2cnc(Nc3cnn(C4CCN(C5COC5)CC4)c3Cl)nc21` [Compound 45, 3-chloro-N-(5-chloro-1-(1-(oxetan-3-yl)piperidin-4-yl)-1H-pyrazol-4-yl)-1-ethyl-1H-pyrazolo[3,4-d]pyrimidin-6-amine], the IC50 under setting [1] lay in the range of 10 to 100 nM.

For `FC(F)(F)Cn1nc(Cl)c2cnc(Nc3cnn(C4CCN(C5COC5)CC4)c3Cl)nc21` [Compound 50, 3-chloro-N-(5-chloro-1-(1-(oxetan-3-yl)piperidin-4-yl)-1H-pyrazol-4-yl)-1-(2,2,2-trifluoroethyl)-1H-pyrazolo[3,4-d]pyrimidin-6-amine], under setting [1], the IC50 was in the range of 10 to 100 nM.

Regarding `CCn1nc(Cl)c2cnc(Nc3cn(C4CCN(C(=O)C(C)(C)C)CC4)nc3Cl)nc21` [Compound 53, 1-(4-(3-chloro-4-(3-chloro-1-ethyl-1H-pyrazolo[3,4-d]pyrimidin-6-ylamino)-1H-pyrazol-1-yl)piperidin-1-yl)-2,2-dimethylpropane-1-one], the IC50 under setting [1] is less than 10 nM.

In the case of `CCn1nc(Cl)c2cnc(Nc3cn(C4CCCN(S(C)(=O)=O)CC4)nc3Cl)nc21` (centres unmarked) [Compound 51, 3-chloro-N-(3-chloro-1-(1-(methylsulfonyl)azepan-4-yl)-1H-pyrazol-4-yl)-1-ethyl-1H-pyrazolo[3,4-d]pyrimidin-6-amine], the IC50 under setting [1] is less than 10 nM and the IC50 under setting [2] came to 4.75 nM.

For the compound `CCn1nc(Cl)c2cnc(Nc3cnn(C4CCN(S(C)(=O)=O)CC4)c3Cl)nc21` [Compound 62, 3-chloro-N-(5-chloro-1-(1-(methylsulfonyl)piperidin-4-yl)-1H-pyrazol-4-yl)-1-ethyl-1H-pyrazolo[3,4-d]pyrimidin-6-amine], under setting [1], the IC50 fell in the range of 10 to 100 nM.

`CCn1cc(Cl)c2cnc(Nc3cn(C4CN(S(C)(=O)=O)C4)nc3Cl)nc21` [Compound 40, 5-chloro-N-(3-chloro-1-(1-(methylsulfonyl)azetidin-3-yl)-1H-pyrazol-4-yl)-7-ethyl-7H-pyrrolo[2,3-d]pyrimidin-2-amine]: under setting [1], the IC50 was in the range of 10 to 100 nM.

Consider `CC(C)n1cc(Nc2ncc3c(Cl)cn(C)c3n2)c(C(F)(F)F)n1` [Compound 9, 5-chloro-N-(1-isopropyl-3-(trifluoromethyl)-1H-pyrazol-4-yl)-7-methyl-7H-pyrrolo[2,3-d]pyrimidin-2-amine], for which the IC50 under setting [1] is 100 to 1000 nM.

For `CCN1CCC(n2cc(Nc3ncc4c(Cl)cn(CC)c4n3)c(Cl)n2)CC1` [Compound 20, 5-chloro-N-(3-chloro-1-(1-ethylpiperidin-4-yl)-1H-pyrazol-4-yl)-7-ethyl-7H-pyrrolo[2,3-d]pyrimidin-2-amine], the IC50 under setting [1] lay within 10 to 100 nM.

Take `CCn1cc(Cl)c2cnc(Nc3cnn(-c4ccc(Cl)cc4)c3Cl)nc21` [Compound 22, 5-chloro-N-(5-chloro-1-(4-chlorophenyl)-1H-pyrazol-4-yl)-7-ethyl-7H-pyrrolo[2,3-d]pyrimidin-2-amine]: the IC50 under setting [1] is 100 to 1000 nM.

As for `CCn1cc(Cl)c2cnc(Nc3cn([C@@H]4CCN(C(=O)C5CCCC5)C4)nc3Cl)nc21` [Compound 38, (R)-(3-(3-chloro-4-(5-chloro-7-ethyl-7H-pyrrolo[2,3-d]pyrimidin-2-ylamino)-1H-pyrazol-1-yl)pyrrolidin-1-yl)(cyclopentyl)methanone], the concentration for half-maximal inhibition (IC50) under setting [1] lay in the range of 10 to 100 nM.

On to `CCn1cc(Cl)c2cnc(Nc3cn(C4CCN(C(=O)C(C)(C)C)CC4)nc3Cl)nc21` [Compound 33, 1-(4-(3-chloro-4-(5-chloro-7-ethyl-7H-pyrrolo[2,3-d]pyrimidin-2-ylamino)-1H-pyrazol-1-yl)piperidin-1-yl)-2,2-dimethylpropane-1-one], for which the half-maximal inhibitory concentration (IC50) reads like this: under setting [1], less than 10 nM; under setting [2], 6.07 nM.

Turning to `CCn1cc(Cl)c2cnc(Nc3cnn(C4CCN(C5COC5)CC4)c3Cl)nc21` [Compound 28, 5-chloro-N-(5-chloro-1-(1-(oxetan-3-yl)piperidin-4-yl)-1H-pyrazol-4-yl)-7-ethyl-7H-pyrrolo[2,3-d]pyrimidin-2-amine], the IC50 by setting is: under setting [1], less than 10 nM; under setting [2], 6.5 nM.

`CCn1cc(Cl)c2cnc(Nc3cnn(C4COC4)c3Cl)nc21` [Compound 16, 5-chloro-N-(5-chloro-1-(oxetan-3-yl)-1H-pyrazol-4-yl)-7-ethyl-7H-pyrrolo[2,3-d]pyrimidin-2-amine]: the IC50 under setting [1] fell in the range of 10 to 100 nM.

In the case of `CCn1cc(Cl)c2cnc(Nc3cn(C4CCN(C(=O)N5CCOCC5)CC4)nc3Cl)nc21` [Compound 31, (4-(3-chloro-4-(5-chloro-7-ethyl-7H-pyrrolo[2,3-d]pyrimidin-2-ylamino)-1H-pyrazol-1-yl)piperidin-1-yl)(morpholino)methanone], the IC50 is, setting by setting: under setting [1], less than 10 nM; under setting [2], 4.66 nM.

Take `Cn1ncc(Nc2ncc3c(C(F)(F)F)cn(C)c3n2)c1Cl` [Compound 1, N-(5-chloro-1-methyl-1H-pyrazol-4-yl)-7-methyl-5-(trifluoromethyl)-7H-pyrrolo[2,3-d]pyrimidin-2-amine]: the IC50 under setting [1] was 100 to 1000 nM.

As to `CCn1cc(Cl)c2cnc(Nc3cn(CCOC)nc3Cl)nc21` [Compound 12, 5-chloro-N-(3-chloro-1-(2-methoxyethyl)-1H-pyrazol-4-yl)-7-ethyl-7H-pyrrolo[2,3-d]pyrimidin-2-amine], the IC50 under setting [1] lay within 10 to 100 nM.

Regarding `CC(C)n1cc(Nc2ncc3c(Cl)cn(C)c3n2)c(Cl)n1` [Compound 3, 5-chloro-N-(3-chloro-1-isopropyl-1H-pyrazol-4-yl)-7-methyl-7H-pyrrolo[2,3-d]pyrimidin-2-amine], the IC50 under setting [1] fell in the range of 10 to 100 nM.

In the case of `Cn1cc(Cl)c2cnc(Nc3cn(C4CCOCC4)nc3C(F)(F)F)nc21` [Compound 4, 5-chloro-7-methyl-N-(1-(tetrahydro-2H-pyran-4-yl)-3-(trifluoromethyl)-1H-pyrazol-4-yl)-7H-pyrrolo[2,3-d]pyrimidin-2-amine], the IC50 under setting [1] lay within 100 to 1000 nM.

Regarding `CS(=O)(=O)N1CCC(n2cc(Nc3ncc4c(Cl)nn(CC(F)(F)F)c4n3)c(Cl)n2)CC1` [Compound 49, 3-chloro-N-(3-chloro-1-(1-(methylsulfonyl)piperidin-4-yl)-1H-pyrazol-4-yl)-1-(2,2,2-trifluoroethyl)-1H-pyrazolo[3,4-d]pyrimidin-6-amine], the concentration for half-maximal inhibition (IC50) under setting [1] fell in the range of 10 to 100 nM.

As to `CCn1nc(Cl)c2cnc(Nc3cn(C4CCN(C(=O)C5CC5)CC4)nc3Cl)nc21` [Compound 57, (4-(3-chloro-4-(3-chloro-1-ethyl-1H-pyrazolo[3,4-d]pyrimidin-6-ylamino)-1H-pyrazol-1-yl)piperidin-1-yl)(cyclopropyl)methanone], the IC50 under setting [1] was less than 10 nM and the 50% inhibitory concentration (IC50) under setting [2] is 7.22 nM.

Regarding `CCn1nc(Cl)c2cnc(Nc3cn(C4CCN(S(=O)(=O)CC)CC4)nc3Cl)nc21` [Compound 59, 3-chloro-N-(3-chloro-1-(1-(ethylsulfonyl)piperidin-4-yl)-1H-pyrazol-4-yl)-1-ethyl-1H-pyrazolo[3,4-d]pyrimidin-6-amine], the IC50 under setting [1] is less than 10 nM and the IC50 under setting [2] came to 3.94 nM.
